Assay [1] deals with TGGAGA cognate hairpin (biotinylated) (DNA, hairpin) CCTTGGAGAGTTTTCTCTCCAAGG
Put plainly: SPR, global kinetic fit. As to conditions: 50 mM NaCl; 10 mM HEPES, 1 mM EDTA, pH 7.4, 0.05% P20, 25 °C.

In assay [2] the test system is TGGAGA cognate hairpin (DNA, hairpin) CCTTGGAGAGTTTTCTCTCCAAGG
As to the kind of experiment: UV melting. As to conditions: 50 mM NaCl; 10 mM HEPES, 1 mM EDTA, pH 7.4; 3 µM hairpin, 3 µM compound.

The term KD denotes a measure of binding affinity in units of concentration. A lower KD goes with tighter binding. As to `CN(C)CCCNC(=O)CCNC(=O)c1cc(NC(=O)CCNC(=O)c2cc(NC(=O)c3cc(NC(=O)CCCNC(=O)c4nc(NC(=O)c5cc(NC(=O)c6nc(NC(=O)c7nccn7C)cn6C)cn5C)cn4C)cn3C)cn2C)cn1C`, the KD in assay [1] is 36.4 ± 0.4 nM.
Still for that read-out and setting: the result for `CN(C)CCCNC(=O)CCNC(=O)c1cc(NC(=O)c2cc(NC(=O)c3cc(NC(=O)c4cc(NC(=O)CCCNC(=O)c5nc(NC(=O)CCNC(=O)c6nc(NC(=O)c7nccn7C)cn6C)cn5C)cn4C)cn3C)cn2C)cn1C` reads 12.1 ± 0.4 nM.
Usually ΔTm stands for the shift of the melting midpoint relative to a reference. As to `CN(C)CCCNC(=O)CCNC(=O)c1cc(NC(=O)c2cc(NC(=O)c3cc(NC(=O)c4cc(NC(=O)CCCNC(=O)c5nc(NC(=O)c6cc(NC(=O)c7nc(NC(=O)c8nccn8C)cn7C)cn6C)cn5C)cn4C)cn3C)cn2C)cn1C`, in assay [2], the shift in melting temperature (ΔTm) is 7.8 °C. The compound further yielded an equilibrium dissociation constant (KD) in assay [1] of 2.5 ± 0.4 nM.
Compound `CN(CCCN)CCCNC(=O)CCNC(=O)c1cc(NC(=O)CCNC(=O)c2cc(NC(=O)c3cc(NC(=O)CCCNC(=O)c4nc(NC(=O)CCNC(=O)c5nc(NC(=O)c6nccn6C)cn5C)cn4C)cn3C)cn2C)cn1C` came in with a KD in assay [1] of 26.3 ± 2.2 nM.
Regarding `CN(CCCN)CCCNC(=O)CCNC(=O)c1cc(NC(=O)c2cc(NC(=O)CCNC(=O)c3cc(NC(=O)CCCNC(=O)c4nc(NC(=O)CCNC(=O)c5nc(NC(=O)c6nccn6C)cn5C)cn4C)cn3C)cn2C)cn1C`, the thermal shift (ΔTm) in assay [2] came to 3.6 °C. For the same compound, the equilibrium dissociation constant (KD) in assay [1] turned out to be 18.6 ± 0.8 nM.
Taken in the same sequence, the figures for `CN(CCCN)CCCNC(=O)CCNC(=O)c1cc(NC(=O)c2cc(NC(=O)CCNC(=O)c3cc(NC(=O)CCCNC(=O)c4nc(NC(=O)c5cc(NC(=O)c6nc(NC(=O)c7nccn7C)cn6C)cn5C)cn4C)cn3C)cn2C)cn1C` were 8.0 °C and 2.6 ± 0.2 nM.
In turn, `CN(CCCN)CCCNC(=O)CCNC(=O)c1cc(NC(=O)c2cc(NC(=O)c3cc(NC(=O)c4cc(NC(=O)CCCNC(=O)c5nc(NC(=O)c6cc(NC(=O)c7nc(NC(=O)c8nccn8C)cn7C)cn6C)cn5C)cn4C)cn3C)cn2C)cn1C` came in with a KD in assay [1] of 2.0 ± 0.2 nM.

The values above are taken from article PMC4339220 (2014).
